“And” between values parts separate entries of the source, which are not always exact repeats. Identical values can stand only once.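 Each compound was tested at five concentrations against cells in 96-well plates for 48 hours. GI50: concentration for 50% inhibition of growth. TGI is the concentration that stops growth completely.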
Columns and labels:
Assay in all cases: NCI-60 cell line screen, 48 h
NCI-H23 lung = system: NCI-H23 lung
NCI-H460 lung = system: NCI-H460 lung
HCT-15 colon = system: HCT-15 colon
SK-MEL-28 melanoma = system: SK-MEL-28 melanoma
UACC-257 melanoma = system: UACC-257 melanoma
HS 578T breast = system: HS 578T breast
RPMI-8226 leukemia = system: RPMI-8226 leukemia
OVCAR-5 ovarian = system: OVCAR-5 ovarian
K-562 leukemia = system: K-562 leukemia
MALME-3M melanoma = system: MALME-3M melanoma

Compound | TGI (NCI-H23 lung) | TGI (NCI-H460 lung) | TGI (HCT-15 colon) | TGI (SK-MEL-28 melanoma) | TGI (UACC-257 melanoma) | TGI (HS 578T breast) | TGI (RPMI-8226 leukemia) | TGI (OVCAR-5 ovarian) | TGI (K-562 leukemia) | TGI (MALME-3M melanoma) | GI50 (OVCAR-5 ovarian) | GI50 (K-562 leukemia)
O=S(=O)(Oc1ccc2oc3ccccc3c2c1-c1c(OS(=O)(=O)C(F)(F)F)ccc2oc3ccccc3c12)C(F)(F)F | > 100 µM | > 100 µM | > 100 µM | > 100 µM | > 100 µM | > 100 µM | > 100 µM | > 100 µM | > 100 µM | – | – | –
Clc1ccc(-c2ccc(-c3nnc(CCc4nnc(-c5ccc(-c6ccc(Cl)cc6)o5)o4)o3)o2)cc1 | > 100 µM | > 100 µM | > 100 µM | > 100 µM | > 100 µM | 86 µM | > 100 µM | > 100 µM | > 61.2 µM | – | – | –
COc1ccc(-c2nc(N)c(C#N)c3c2CCS(=O)(=O)c2ccc(C)cc2-3)cc1OC | > 100 µM | > 100 µM | > 100 µM | > 100 µM | > 100 µM | 77.6 µM | – | > 100 µM | 29.4 µM | > 100 µM | – | –
[O-]/[N+](=C\c1ccccc1)[C@H](COCc1ccccc1)c1ccccc1 | > 100 µM | > 100 µM | – | > 100 µM | > 100 µM | – | > 100 µM | > 100 µM | > 100 µM | > 100 µM | – | –
CCC1(O)CC(OC2CC(N(C)C)C(OC3CC4OC5CC(=O)C(C)OC5OC4C(C)O3)C(C)O2)c2c(cc3c(c2O)C(=O)c2c(O)ccc(O)c2C3=O)C1C(=O)OC (stereo not drawn) | – | – | – | – | – | – | – | – | – | – | 0.00138 µM and 0.00225 µM and 0.00943 µM | 0.000761 µM and 0.00754 µM
COc1cccc2c1OC1c3ccccc3OCC1C2 (stereo not drawn) | > 100 µM | – | > 100 µM | – | > 100 µM | – | > 100 µM | > 100 µM | > 100 µM | > 100 µM | – | –
O=C(CSc1nnc(-c2ccc(N=Cc3ccc(Cl)cc3)cc2)o1)Nc1ccccc1Cl | > 100 µM | > 100 µM | > 100 µM | > 100 µM | > 100 µM | – | > 100 µM | – | > 100 µM | > 100 µM | – | –
O=C1c2ccccc2C(=O)N1n1c(Cc2ccccc2)n[nH]c1=O | > 100 µM | > 100 µM | > 100 µM | > 100 µM | > 100 µM | > 100 µM | – | > 100 µM | > 100 µM | > 100 µM | – | –
CC1=NN(c2nc(N)nc(-c3ccccc3S(N)(=O)=O)n2)C(C)(C)C1 | > 100 µM | > 100 µM | > 100 µM | > 100 µM | > 100 µM | > 100 µM | > 100 µM | > 100 µM | > 100 µM | – | – | –
CC(=O)NC1C(OCc2ccccc2)OC(CO)C(O)C1OCC(=O)NC(C)C(=O)NC(CCC(=O)NCCCCNc1ccc([N+](=O)[O-])c2[nH]c3ccccc3c(=O)c12)C(N)=O (stereo not drawn) | > 100 µM | > 100 µM | > 100 µM | > 100 µM | – | 75.2 µM | – | > 100 µM | > 100 µM | > 100 µM | – | –
O=C1N[C@H]2c3c(Cl)sc(Cl)c3/C(=N/O)[C@H]2O1 | – | > 100 µM | > 100 µM | > 100 µM | > 100 µM | – | > 100 µM | > 100 µM | > 100 µM | > 100 µM | – | –
Cc1nc2c(=S)[nH]ncc2[nH]1 | > 100 µM | – | > 100 µM | > 100 µM | > 100 µM | – | > 100 µM | > 100 µM | > 100 µM | > 100 µM | – | –
CC(=O)OCC1OC(Nc2[nH]c(=O)n(C)c(=O)c2-c2csc(N)n2)C(OC(C)=O)C(OC(C)=O)C1OC(C)=O (stereo not drawn) | > 100 µM | > 100 µM | > 100 µM | > 100 µM | > 100 µM | – | > 100 µM | > 100 µM | > 100 µM | > 100 µM | – | –
CCOC(=O)CCCn1nnc(C(=O)OCC)c1C(=O)OCC | > 100 µM | > 100 µM | > 100 µM | > 100 µM | > 100 µM | > 100 µM | – | – | – | > 100 µM | – | –
CO/C(=N\N=C\c1cc(OC)ccc1OC)c1ccncc1 | > 10 µM | > 10 µM | > 10 µM | > 10 µM | – | – | > 10 µM | > 10 µM | > 10 µM | > 10 µM | – | –
CCC(C)[C@@H](NCc1ccccc1)[C@H](OCc1ccccc1)[C@@H]1COC(C)(C)O1 (stereo partly drawn) | 44.3 µM | – | 31.6 µM | 71.4 µM | 38.1 µM | 70.7 µM | 36.1 µM | 90.8 µM | 59.8 µM | 45.8 µM | – | –
COCOc1ccc(C(=O)C(C)c2ccc(OCOC)cc2OCOC)c(O)c1 (stereo not drawn) | > 100 µM | > 100 µM | > 100 µM | > 100 µM | > 100 µM | – | > 100 µM | > 100 µM | – | > 100 µM | – | –
Cc1ccc(S(=O)(=O)N/N=C/c2oc(-c3cccc([N+](=O)[O-])c3)c(-c3cccc([N+](=O)[O-])c3)c2[N+](=O)[O-])cc1 | > 100 µM | > 100 µM | > 100 µM | > 100 µM | > 100 µM | – | 67.1 µM | > 100 µM | 69.9 µM | > 100 µM | – | –
O=C1C2CCCCC2C(=O)N1n1c(Cc2ccc(Cl)cc2)n[nH]c1=O (stereo not drawn) | > 100 µM | > 100 µM | > 100 µM | – | > 100 µM | > 100 µM | > 100 µM | > 100 µM | > 100 µM | > 100 µM | – | –
O=C(CP(c1ccccc1)c1ccccc1)c1cccc(C(=O)CP(c2ccccc2)c2ccccc2)c1 | – | > 100 µM | > 100 µM | > 100 µM | > 100 µM | > 100 µM | 67.4 µM | > 100 µM | > 100 µM | – | – | –
C1OCC2S[C@@H]3COCO[C@@H]3C2O1 (stereo partly drawn) | > 100 µM | > 100 µM | > 100 µM | > 100 µM | > 100 µM | – | > 100 µM | > 100 µM | > 100 µM | > 100 µM | – | –
COc1ccc(/C=C2\CN(C)Cc3c2nc(N)nc3-c2ccc(OC)cc2)cc1 | > 100 µM | > 100 µM | – | > 100 µM | – | – | > 100 µM | > 100 µM | > 100 µM | > 100 µM | – | –
CCC(C)[C@H](NC(=O)[C@H](Cc1ccccc1)NC(=O)N(CC)c1ccccc1)C(=O)N[C@@H](CC(C)C)C(=O)OC (stereo partly drawn) | > 100 µM | – | > 100 µM | > 100 µM | 74.8 µM | > 100 µM | 38 µM | > 100 µM | – | > 100 µM | – | –
CN(C)CC(/C(Cc1ccccc1)=N\NC(=O)C[n+]1ccccc1)c1ccccc1 (stereo not drawn) | > 100 µM | > 100 µM | > 100 µM | > 100 µM | > 100 µM | – | – | > 100 µM | > 100 µM | > 100 µM | – | –

Source: PubChem BioAssay (NCI)
